The source of these data is US20180368410A1, “MICROBIOCIDAL OXADIAZOLE DERIVATIVES” (SYNGENTA PARTICIPATIONS AG, priority 2015, published 2018).

For assay [1], the system named is Uromyces viciae-Fabael. The assay can be described thus: Uromyces viciae-fabae / field bean / leaf disc preventative (faba-bean rust). Format: in vivo, Uromyces viciae-fabae on field bean. The conditions noted are these: foliar, 288 h, 100 ppm in the applied formulation, inoculated two hours after application, assessed 12 days after application, vs untreated control leaf discs, read-out: disease control. Here is the method:
(§1) Leaf disks or leaf segments of various plant species are cut from plants grown in a greenhouse. The cut leaf disks or segments are placed in multiwell plates (24-well format) onto water agar. The leaf disks are sprayed with a test solution before (preventative) or after (curative) inoculation. Compounds to be tested are prepared as DMSO solutions (max. 10 mg/ml) which are diluted to the appropriate concentration with 0.025% Tween20 just before spraying. The inoculated leaf disks or segments are incubated under defined conditions (temperature, relative humidity, light, etc.) according to the respective test system. A single evaluation of disease level is carried out 3 to 14 days after inoculation, depending on the pathosystem. Percent disease control relative to the untreated check leaf disks or segments is then calculated.
Field bean leaf discs are placed on water agar in multiwell plates (96-well format) and 10 μl of the formulated test compound diluted in acetone and a spreader pipetted onto the leaf disc. Two hours after application leaf discs are inoculated by spraying a spore suspension on the lower leaf surface. The leaf discs are incubated in a climate cabinet at 22° C. with 18 hour day and 70% relative humidity. The activity of a compound is assessed as percent disease control compared to untreated when an appropriate level of disease damage appears in untreated check leaf disks (12 days after application).
The following compounds at 100 ppm in the applied formulation give at least 80% disease control in this test when compared to untreated control leaf discs under the same conditions, which show extensive disease development.

The subject of assay [2] is Puccinia recondita f. Sp. Tritici. The assay can be described thus: Puccinia recondita f. sp. tritici / wheat / leaf disc preventative (brown rust). The assay is classed as in vivo, Puccinia recondita f. sp. tritici on wheat cv. Kanzler. To be noted: foliar, 200 ppm in the applied formulation, inoculated 1 day after application, assessed 7 to 9 days after application, vs untreated control leaf disks, read-out: disease control. In a few lines:
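Wheat cv. Kanzler leaf segments on agar were sprayed with compound (DMSO stock diluted with 0.025% Tween20) 1 day before inoculation with spores. Segments were held at 19 °C, 75% rh, 12 h light/dark. Percent disease control versus untreated was scored 7–9 days after application.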

Assay [3] relates to Glomerella Lacenarium (Colletotrichum lacenarium). The experiment in a line: Glomerella lagenarium (Colletotrichum lagenarium) liquid culture / cucumber / preventative (anthracnose). The conditions noted are these: 20 ppm in the applied formulation, liquid culture in PDB, 24° C., inhibition of growth measured photometrically 3 to 4 days after application, vs untreated control, read-out: disease control. The assay is classed as cell-based. In a few lines: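 Photometric measurement of fungal growth inhibition 3 to 4 days after application gives percent activity relative to untreated check. Conidia were suspended in potato dextrose broth and combined with DMSO compound solutions; incubation at 24° C.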

Assay [4] concerns Puccinia recondita f. Sp. Triticil. The experiment in a line: Puccinia recondita f. sp. tritici / wheat / leaf disc curative (brown rust). The assay is classed as in vivo, Puccinia recondita f. sp. tritici on wheat cv. Kanzler. To be noted: foliar, 200 ppm in the applied formulation, applied 1 day after inoculation, assessed 6 to 8 days after application, vs untreated control leaf disks, read-out: disease control. In a few lines:
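Read-out is percent disease control relative to untreated segments, assessed 6 to 8 days after treatment once check disease is adequate. Kanzler wheat leaf segments on agar receive fungal spores, then test compound (DMSO stock diluted in 0.025% Tween20 or water) 1 day later, under 19° C and 75% relative humidity.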

Assay [5] deals with Phakopsora pachyrhizi. The assay can be described thus: Phakopsora pachyrhizi / soybean / leaf disc preventative (Asian soybean rust). To be noted: foliar, 200 ppm in the applied formulation, inoculated one day after application, assessed 12 to 14 days after application, vs untreated control leaf disks, read-out: disease control. The assay is classed as in vivo, Phakopsora pachyrhizi on soybean. The method, then:
as §1
Soybean leaf disks are placed on water agar in multiwell plates (24-well format) and sprayed with the formulated test compound diluted in water. One day after application leaf discs are inoculated by spraying a spore suspension on the lower leaf surface. After an incubation period in a climate cabinet of 24-36 hours in darkness at 20° C. and 75% rh leaf disc are kept at 20° C. with 12 h light/day and 75% rh. The activity of a compound is assessed as percent disease control compared to untreated when an appropriate level of disease damage appears in untreated check leaf disks (12 to 14 days after application).
The following compounds at 200 ppm in the applied formulation give at least 80% disease control in this test when compared to untreated control leaf disks under the same conditions, which show extensive disease development.

As for `O=C(NCc1ccc(-c2noc(C(F)(F)F)n2)cc1)c1ccc(Cl)cc1Cl` [Compound 1.8, 2,4-dichloro-N-[[4-[5-(trifluoromethyl)-1,2,4-oxadiazol-3-yl]phenyl]methyl]benzamide], in assay [1], the pest or weed control at 100 ppm is ≥ 80%.
Take `O=C(NCc1ccc(-c2noc(C(F)(F)F)n2)cc1)C1(c2ccccc2)CC1` [Compound 1.14, 1-phenyl-N-[[4-[5-(trifluoromethyl)-1,2,4-oxadiazol-3-yl]phenyl]methyl] cyclopropanecarboxamide]: in assay [2], the pest or weed control at 200 ppm was ≥ 80%. In addition, in assay [3], the inhibition of growth at 20 ppm is ≥ 80%. Also, the pest or weed control at 100 ppm in assay [1] is ≥ 80%.
On to `O=C(Cc1ccc(C(F)(F)F)cc1)NCc1ccc(-c2noc(C(F)(F)F)n2)cc1` [Compound 1.34, N-[[4-[5-(trifluoromethyl)-1,2,4-oxadiazol-3-yl]phenyl]methyl]-2-[4-(trifluoromethyl)phenyl] acetamide], for which the pest or weed control at 200 ppm in assay [2] was ≥ 80%. In addition, the pest or weed control at 100 ppm in assay [1] was ≥ 80%.
On to `O=C(NCc1ccc(-c2noc(C(F)(F)F)n2)cc1)C1(c2ccc(Cl)cc2)CCC1` [Compound 1.13, 1-(4-chlorophenyl)-N-[[4-[5-(trifluoromethyl)-1,2,4-oxadiazol-3-yl]phenyl]methyl] cyclobutanecarboxamide], for which the pest or weed control at 200 ppm in assay [2] is ≥ 80%. In assay [1], the pest or weed control at 100 ppm is ≥ 80%.
Consider `O=C(NCc1ccc(-c2noc(C(F)(F)F)n2)cc1)C1CC1c1ccccc1` (stereo not shown) [Compound 1.15, 2-phenyl-N-[[4-[5-(trifluoromethyl)-1,2,4-oxadiazol-3-yl]phenyl]methyl] cyclopropanecarboxamide], for which the pest or weed control at 200 ppm in assay [2] is ≥ 80%. In addition, the inhibition of growth at 20 ppm in assay [3] was ≥ 80%. Also, in assay [1], the pest or weed control at 100 ppm was ≥ 80%.
As for `COc1cccc(C2(C(=O)NCc3ccc(-c4noc(C(F)(F)F)n4)cc3)CC2)c1` [Compound 1.37, 1-(3-methoxyphenyl)-N-[[4-[5-(trifluoromethyl)-1,2,4-oxadiazol-3-yl]phenyl]methyl] cyclopropanecarboxamide], the pest or weed control at 200 ppm in assay [4] was ≥ 80%. Besides, in assay [1], the pest or weed control at 100 ppm is ≥ 80%.
Consider `O=C(CCc1ccc(Cl)cc1)NCc1ccc(-c2noc(C(F)(F)F)n2)cc1` [Compound 1.11, 3-(4-chlorophenyl)-N-[[4-[5-(trifluoromethyl)-1,2,4-oxadiazol-3-yl]phenyl]methyl] propanamide], for which the pest or weed control at 100 ppm in assay [1] was ≥ 80%.
On to `COc1ccccc1CC(=O)NCc1ccc(-c2noc(C(F)(F)F)n2)cc1` [Compound 1.23, 2-(2-methoxyphenyl)-N-[[4-[5-(trifluoromethyl)-1,2,4-oxadiazol-3-yl]phenyl]methyl]acetamide], for which the pest or weed control at 200 ppm in assay [2] and in assay [4] was ≥ 80% each time. The pest or weed control at 100 ppm in assay [1] was ≥ 80%.
With `O=C(NCc1ccc(-c2noc(C(F)(F)F)n2)cc1)c1cccc(C(F)(F)F)c1` [Compound 1.9, 3-(trifluoromethyl)-N-[[4-[5-(trifluoromethyl)-1,2,4-oxadiazol-3-yl]phenyl]methyl]benzamide], the pest or weed control at 100 ppm in assay [1] was ≥ 80%.
As to `O=C(NCc1ccc(-c2noc(C(F)(F)F)n2)cc1)C1(c2ccc(Cl)cc2)CC1` [Compound 1.39, 1-(4-chlorophenyl)-N-[[4-[5-(trifluoromethyl)-1,2,4-oxadiazol-3-yl]phenyl]methyl] cyclopropanecarboxamide], the pest or weed control at 200 ppm in assay [5] was ≥ 80%. In assay [1], the pest or weed control at 100 ppm is ≥ 80%.
With `O=C(Cc1ccccc1Cl)NCc1ccc(-c2noc(C(F)(F)F)n2)cc1` [Compound 1.12, 2-(2-chlorophenyl)-N-[[4-[5-(trifluoromethyl)-1,2,4-oxadiazol-3-yl]phenyl]methyl]acetamide], the pest or weed control at 200 ppm in assay [2] is ≥ 80%. The pest or weed control at 100 ppm in assay [1] was ≥ 80%.
Regarding `N#Cc1ccc(CC(=O)NCc2ccc(-c3noc(C(F)(F)F)n3)cc2)cc1` [Compound 1.30, 2-(4-cyanophenyl)-N-[[4-[5-(trifluoromethyl)-1,2,4-oxadiazol-3-yl]phenyl]methyl]acetamide], the pest or weed control at 200 ppm in assay [2] and in assay [5] was ≥ 80% in each case. In addition, the pest or weed control at 100 ppm in assay [1] was ≥ 80%.
For `CCOc1ccc(C2(C(=O)NCc3ccc(-c4noc(C(F)(F)F)n4)cc3)CC2(F)F)cc1` (stereo not shown) [Compound 1.35, 1-(4-ethoxyphenyl)-2,2-difluoro-N-[[4-[5-(trifluoromethyl)-1,2,4-oxadiazol-3-yl]phenyl]methyl] cyclopropanecarboxamide], the pest or weed control at 100 ppm in assay [1] is ≥ 80%.
On the same count and under the same terms, the figure for `CCC1(C(=O)NCc2ccc(-c3noc(C(F)(F)F)n3)cc2)C(C)C1(Cl)Cl` (stereo not shown) [Compound 1.31, 2,2-dichloro-1-ethyl-3-methyl-N-[[4-[5-(trifluoromethyl)-1,2,4-oxadiazol-3-yl]phenyl]methyl] cyclopropanecarboxamide] is ≥ 80%.
Take `O=C(Cc1cccnc1)NCc1ccc(-c2noc(C(F)(F)F)n2)cc1` [Compound 1.17, 2-(3-pyridyl)-N-[[4-[5-(trifluoromethyl)-1,2,4-oxadiazol-3-yl]phenyl]methyl]acetamide]: the pest or weed control at 200 ppm in assay [2] and in assay [4] was ≥ 80% throughout. For the same molecule, in assay [1], the pest or weed control at 100 ppm is ≥ 80%.
On to `O=C(NCc1ccc(-c2noc(C(F)(F)F)n2)cc1)C1CCSCC1` [Compound 1.27, N-[[4-[5-(trifluoromethyl)-1,2,4-oxadiazol-3-yl]phenyl]methyl] tetrahydrothiopyran-4-carboxamide], for which the pest or weed control at 200 ppm in assay [2] and in assay [5] was ≥ 80% throughout. In addition, the pest or weed control at 100 ppm in assay [1] was ≥ 80%.
Take `O=C(NCc1ccc(-c2noc(C(F)(F)F)n2)cc1)c1ccccc1` [Compound 1.40, N-[[4-[5-(trifluoromethyl)-1,2,4-oxadiazol-3-yl]phenyl]methyl]benzamide]: the pest or weed control at 200 ppm in assay [2] and in assay [4] was ≥ 80% in each case. Further, in assay [3], the inhibition of growth at 20 ppm is ≥ 80%. In addition, the pest or weed control at 100 ppm in assay [1] is ≥ 80%.
As for `O=C(Cc1ccc(Cl)cc1)NCc1ccc(-c2noc(C(F)(F)F)n2)cc1` [Compound 1.29, 2-(4-chlorophenyl)-N-[[4-[5-(trifluoromethyl)-1,2,4-oxadiazol-3-yl]phenyl]methyl]acetamide], the pest or weed control at 200 ppm in assay [2] and in assay [5] was ≥ 80% in each case. The pest or weed control at 100 ppm in assay [1] is ≥ 80%.
In the case of `CC1(C(=O)NCc2ccc(-c3noc(C(F)(F)F)n3)cc2)CC1(Cl)Cl` (stereo not shown) [Compound 1.20, 2,2-dichloro-1-methyl-N-[[4-[5-(trifluoromethyl)-1,2,4-oxadiazol-3-yl]phenyl]methyl] cyclopropanecarboxamide], in assay [2], the pest or weed control at 200 ppm was ≥ 80%. Further, the inhibition of growth at 20 ppm in assay [3] is ≥ 80%. In addition, the pest or weed control at 100 ppm in assay [1] is ≥ 80%.
As for `O=C(NCc1ccc(-c2noc(C(F)(F)F)n2)cc1)c1ccc(Cl)cc1` [Compound 1.36, 4-chloro-N-[[4-[5-(trifluoromethyl)-1,2,4-oxadiazol-3-yl]phenyl]methyl]benzamide], the pest or weed control at 200 ppm in assay [2] was ≥ 80%. Also, the inhibition of growth at 20 ppm in assay [3] was ≥ 80%. Further, the pest or weed control at 100 ppm in assay [1] was ≥ 80%.
